Source: patent US20140272041A1, “METHODS OF REDUCING PATHOGENS DURING PROCESSING OR POST-PROCESSING OF BEEF, POULTRY AND OTHER MEAT PRODUCTS” (BIRKO Corporation, priority 2009, published 2014)
Like-named read-outs stand apart in the source and are kept apart here.

Columns and labels:
[1] = tested on: E. coli ATCC 12435; assay: Log kill / surviving titer in aqueous bacterial suspension, plating on TSA; assay type: cell-based, Escherichia coli; conditions: […] wt./wt. % WAC in 2.5% lactic acid, 15 seconds, 74 to 80 degrees F.
Experimental: The “reaction” (i.e. interaction of antimicrobial agent and the target organism) was initiated by the addition of bacteria to the antimicrobial solution. The reaction was allowed to proceed for the respective time periods listed in Table I (i.e., at least 15 seconds each) and was terminated at the end of that time by adding quench buffer comprising 3.2 M potassium phosphate buffer, pH 7.2. The sample then was evaluated using serial 10-fold dilutions into sterile phosphate buffer as needed to determine, on Tryptic Soy agar (“TSA”), the titer of surviving bacteria. TSA is a medium that allows the growth of most bacteria.
The reduction in the bacterial count is expressed as the “log kill” which is defined as log10 [initial cfu/ml]−log10 [remaining cfu/ml]; where “cfu” refers to “colony forming unit.” All log kills reported herein are positive “base 10.”). Inasmuch as the standard assay mixture contained only ca. 25×10^6 cfu initially (equivalent to 7.398 log) the theoretical maximum kill that can be measured with this assay system is ca. 7.4 log and the practical measuring limit is ca. 6 log. Therefore, high levels of log reduction were monitored by plating reaction mixtures directly (without dilution) onto agar medium. The results are reported in Table I and illustrated in graph format in FIG. 1. […] The tests were replicated with E. coli ATCC 43888, a pathogenic strain of E. coli O157:H7. […]
After incubation for 15 seconds at ambient temperature the reaction was quenched by addition of phosphate buffer and the titer of surviving bacteria was determined by plating on TSA as described in the previous examples. […] The amphoteric and zwitterionic surfactants, which carry a net positive charge under the conditions of the reaction mixture, caused enhancement of the log kill by lactic acid. All anionic surfactants tested caused substantial enhancement of the log kill by lactic acid.

[2] = tested on: Salmonella enterica, ATCC 14028; assay: Log kill in aqueous bacterial suspension, plating on TSA; assay type: cell-based; conditions: 15 seconds, c. 74° F.
Experimental: As before, reaction mixtures were incubated for 15 seconds at room temperature (c. 74° F.). The results are depicted in Table XII and graphed in FIG. 12.
However, in this example the effectiveness of such mixtures was tested against Salmonella enterica, ATCC 14028. […] The balance was water. Increasing amounts of these “reagents” were added to a series of reaction tubes.
As before each reaction was initiated by the addition of bacteria, incubated at ambient temperature for 15 seconds and terminated by addition of quench buffer. The tests were performed at room temperature. The bacterial titer of each mixture was determined by preparation and plating of serial dilutions on TSA. The results for both reagents are reported in Table XIII and graphed in FIG. 13.

[3] = tested on: Salmonella enterica serovar Typhimurium (ATCC 14028); assay: Log reduction on inoculated meat samples by immersion; conditions: 5% (w/w) total acid (60% lactic+40% citric acid) + 1200 ppm SLS, meat samples immersed 3 minutes at 108° F. (Meat Experiment #43)
Experimental: (§1) Meat samples were allowed to equilibrate to ambient temperature (74° F.) and inoculated with 25 μl of a late log phase culture of either Escherichia coli serotype O157:H7 (ATCC 43888) or Salmonella enterica serovar Typhimurium (ATCC 14028). Samples were allowed to rest for 10 minutes for the bacteria to attach. After attachment the inoculated samples were immersed in the treatment solutions as detailed in each experiment described below. After immersion, meat samples were immediately placed into a sterile Whirlpack Bag with 10-15 ml of neutralizing buffer to inactivate any residual antimicrobial on the meat surface. Samples were massaged for 3 minutes to extract surviving bacteria from the meat. Bacterial counts in the fluid were enumerated by plating on Violet Red Bile Agar (E. coli) or Salmonella Shigella Agar (Salmonella) and counting colonies after at least 16-24 hours of incubation.
The meat samples described in Example 16 were treated with 5% (w/w) total acid (60% lactic+40% citric acid) with addition of 1200 ppm of the anionic surfactant sodium lauryl sulfate (SLS) for 3 minutes at 108° F.

[4] = tested on: Escherichia coli serotype O157:H7 (ATCC 43888); assay: as above
Experimental: as §1, with “incubation. […]” for “incubation.”

[5] = tested on: E. coli ATCC 43888 (O157:H7); assay: Log kill in aqueous bacterial suspension, plating on TSA; assay type: cell-based, Escherichia coli
[6] = 1200 ppm SLS, 5% total acid at ratio 4:6 citric acid:lactic acid, 2 minutes at 109-111° F., control 5% lactic acid only
[7] = 1400 ppm SLS added to 5% total acid 60:40 lactic:citric, 3 minutes at 109° F.

CCCCCCCCCCCCOS(=O)(=O)[O-].[Na+] [Sodium Lauryl Sulfate, sodium lauryl sulfate]
Log Kill (Lactic Acid + Surfactant) [1]: 6.43 log
Log Kill ([2]; sodium lauryl sulfate 0.004 wt./wt. % in […] lactic acid): 3.82 log
Log Kill ([2]; sodium lauryl sulfate 0.008 wt./wt. % in […] lactic acid): 4.4 log
Log Kill ([2]; sodium lauryl sulfate 0.012 wt./wt. % in […] lactic acid): 5.489 log
Log Kill ([2]; sodium lauryl sulfate 0.016 wt./wt. % in […] lactic acid): 5.489 log
Log Kill ([2]; sodium lauryl sulfate 0.020 wt./wt. % in […] lactic acid): 5.97 log
Log Reduction [3]: 3.28 log
effect of increasing SLS concentration on kill by lactic acid ([4]; 4% (w/w) lactic acid with 0-1700 ppm sodium lauryl sulfate, 2 minutes at 108° F.): enhanced kill
enhancement of reduction when SLS is included [4, 6]: ca. 1.6 log
increase of microbial reduction when SLS is included [4, 6]: 40 fold
enhancement of reduction when SLS is included [4, 7]: ca. 1.6 log
increase of microbial reduction when SLS is included [4, 7]: 40 fold
Log Kill [5]: 4.8 log
in 2.5% Lactic Acid (Log Kill) [5]: 5.81 log
in […] Lactic Acid (Log Kill) [5]: 5.83 log
Log Kill ([5]; sodium lauryl sulfate 0.004 wt./wt. % in […] lactic acid, 15 seconds, 75 degrees F.): 2.08 log
Log Kill ([5]; sodium lauryl sulfate 0.012 wt./wt. % in […] lactic acid, 15 seconds, 75 degrees F.): 5.92 log
Log Kill ([5]; sodium lauryl sulfate 0.016 wt./wt. % in […] lactic acid, 15 seconds, 75 degrees F.): 5.92 log
in 2.5% Lactic Acid (Log Kill) ([5]; sodium lauryl sulfate 0.02 wt./wt. % in 2.5% lactic acid): 4.81 log
in 2.5% Lactic Acid (Log Kill) ([5]; sodium lauryl sulfate 0.04 wt./wt. % in 2.5% lactic acid): 4.81 log
in […] Lactic Acid (Log Kill) ([5]; sodium lauryl sulfate 0.04 wt./wt. % in […] lactic acid, 15 seconds, 75 degrees F.): 5.83 log
in 2.5% Lactic Acid (Log Kill) ([5]; sodium lauryl sulfate 0.06 wt./wt. % in 2.5% lactic acid): 5.81 log
in […] Lactic Acid (Log Kill) ([5]; sodium lauryl sulfate 0.06 wt./wt. % in […] lactic acid, 15 seconds, 75 degrees F.): 5.34 log
in 2.5% Lactic Acid (Log Kill) ([5]; sodium lauryl sulfate 0.10 wt./wt. % in 2.5% lactic acid): 5.81 log
in […] Lactic Acid (Log Kill) ([5]; sodium lauryl sulfate 0.10 wt./wt. % in […] lactic acid, 15 seconds, 75 degrees F.): 5.83 log
